These compounds were tested against BTK protein kinase (Homo sapiens, UniProt Q06187) (assay: In vitro enzymatic activity against BTK (ADP-Glo)). Settings: compound with BTK 4 hours at room temperature; ATP 10 μM, 37° C. 1 hour; value printed in nm.
Format: biochemical
Procedure: In vitro enzymatic activity of the compounds against BTK was determined in a experimental assay of in vitro enzymatic activity using […] kit (purchased from Progema, USA).
9 μL of BTK protein kinase (at a concentration of 1.5 ng/μL) was used to react with compounds (1 μL) shown in the following table that were diluted three times in gradient at room temperature for 4 hours (the final concentration of the compound being 10 μM, 3 μM, 1 μM, 0.3 μM, 0.1 μM, 0.03 μM, 0.01 μM, 0.003 μM);
2 μL of ATP and 3 μL of the substrate Poly(4:1 Glu, Tyr)Peptide (Promega, USA) (the final concentrations being 10 μM and 0.2 μg/μL, respectively) were added to allow reaction at 37° C. for 1 hour;
5 μL of BTK kinase solution after reaction was taken and added into 5 μL of ADP-Glo™ (Promega, USA) reagent to allow reaction at room temperature for 40 mins so as to terminate the kinase reaction and exhaust the remaining ATP;
10 μL kinase detecting reagent was added to convert ADP to ATP, and newly synthesized ATP was detected using coupled luciferase/[…] reaction, then the IC50 values were calculated by using a plotting method based on the Envision reading.

Chain of BTK protein kinase (Q06187 whole entry): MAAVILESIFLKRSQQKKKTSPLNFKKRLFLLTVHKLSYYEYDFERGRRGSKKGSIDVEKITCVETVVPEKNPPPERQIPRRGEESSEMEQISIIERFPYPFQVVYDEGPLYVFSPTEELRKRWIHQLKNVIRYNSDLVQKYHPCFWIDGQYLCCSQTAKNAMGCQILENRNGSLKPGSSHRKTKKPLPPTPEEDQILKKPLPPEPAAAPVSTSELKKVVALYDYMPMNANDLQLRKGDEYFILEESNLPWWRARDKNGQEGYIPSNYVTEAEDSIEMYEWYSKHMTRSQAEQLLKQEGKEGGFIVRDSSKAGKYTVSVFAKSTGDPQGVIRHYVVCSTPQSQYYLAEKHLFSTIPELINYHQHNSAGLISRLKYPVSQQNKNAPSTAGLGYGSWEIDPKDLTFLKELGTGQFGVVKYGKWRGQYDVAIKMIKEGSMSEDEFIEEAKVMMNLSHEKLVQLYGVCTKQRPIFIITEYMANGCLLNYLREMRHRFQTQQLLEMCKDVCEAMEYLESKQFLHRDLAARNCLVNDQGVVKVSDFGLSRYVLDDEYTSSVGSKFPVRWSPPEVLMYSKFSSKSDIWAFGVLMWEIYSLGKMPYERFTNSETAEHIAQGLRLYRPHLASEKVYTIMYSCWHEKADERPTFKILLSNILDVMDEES

Q: For `C=CC(=O)Nc1cc(Nc2cc(-c3cccc(NC(=O)c4cc5ccccc5s4)c3C)cn(C)c2=O)ccc1N1CCC(OC)CC1` [Compound 87, N-(3-(5-((3-acrylamide-4-(4-methoxypiperidin-1-yl)phenyl)amino)-1-methyl-6-oxo-1,6-dihydropyridin-3-yl)-2-methylphenyl)benzo[b]thiophene-2-carboxamide], which IC50 is on record?
A: 0.126 µM

Same assay, conditions: compound with BTK 4 hours at room temperature; ATP 10 μM, 37° C. 1 hour; values given in μM

Q: How did the IC50 turn out when `Cc1c(NC(=O)c2ccc(C(C)(C)C)cc2)cc(NC(=O)CCl)cc1-c1cc(Nc2ccc(C(=O)N3CCOCC3)cc2)c(=O)n(C)c1` [Compound 7, 4-(tert-butyl)-N-(5-(2-chloroacetamide)-2-methyl-3-(1-methyl-5-((4-(morpholin-4-carbonyl)phenyl)amino)-6-oxo-1,6-dihydropyridin-3-yl)phenyl)benzoylamide] was run?
A: 1.22 µM

Same assay, conditions: compound with BTK 4 hours at room temperature; ATP 10 μM, 37° C. 1 hour; values in nM

Q: For `Cc1c(NC(=O)c2ccc3c(c2)OCO3)cccc1-c1cc(Nc2ccc(C(=O)N3CCOCC3)c(NC(=O)CCl)c2)c(=O)n(C)c1` [Compound 19, N-(3-(5-((3-chloroacetamide-4-(morpholin-4-carbonyl)phenyl)amino)-1-methyl-6-oxo-1,6-dihydropyridin-3-yl)-2-methylphenyl)-benzo[d][1,3]dioxolanyl-5-carboxamide], which IC50 is on record?
A: 0.197 µM

Q: For `C=CC(=O)Nc1cc(Nc2cc(-c3cccc(NC(=O)c4ccc(N(C)C)cc4)c3C)cn(C)c2=O)ccc1N1CCOCC1` [Compound 73], which IC50 is on record?
A: 0.0249 µM

Q: For `CCC(=O)Nc1cc(Nc2cc(-c3cccc(NC(=O)c4ccc(N(C)C)cc4)c3C)cn(C)c2=O)ccc1C(=O)N1CCOCC1` [Compound 37, N-(3-(5-((3-propanamide-4-(morpholin-4-carbonyl)phenyl)amino)-1-methyl-6-oxo-1,6-dihydropyridin-3-yl)-2-methylphenyl)-4-(dimethylamino)benzo], which IC50 is on record?
A: 0.646 µM

Q: How did the IC50 turn out when `C=CC(=O)Nc1cc(Nc2cc(-c3cccc(NC(=O)c4ccc(C(C)(C)C)cc4)c3C)cn(C)c2=O)ccc1C(=O)N1CCN(C(=O)OC(C)(C)C)CC1` [Compound 38, tertbutyl 4-(2-acrylamide-4-((5-(3-(4-(tert-butyl)benzamide)-2-methylphenyl)-1-methyl-2-oxo-1,2-dihydropyridin-3-yl)amino)benzoyl)piperazin-1-carboxylate] was run?
A: 0.085 µM

Q: How did the IC50 turn out when `C=CC(=O)Nc1cc(Nc2cc(-c3cccc(NC(=O)c4cc5c(s4)CCCC5)c3C)cn(C)c2=O)ccc1N1CCN(C(C)=O)CC1` [Compound 79, N-(3-(5-((4-(4-acetylpiperazin-1-yl)-3-acrylamidephenyl)amino)-1-methyl-6-oxo-1,6-dihydropyridin-3-yl)-2-methylphenyl)-4,5,6,7-tetrahydrobenzo[b]thiophene-2-carboxamide] was run?
A: 0.082 µM

Q: For `C=CC(=O)Nc1cc(Nc2cc(-c3cccc(NC(=O)c4cc5c(s4)CCCC5)c3C)cn(C)c2=O)ccc1C(=O)N1CCCC1` [Compound 69, N-(3-(5-((3-acrylamide-4-(pyrrolidin-1-carbonyl)phenyl)amino)-1-methyl-6-oxo-1,6-dihydropyridin-3-yl)-2-methylphenyl)-4,5,6,7-tetrahydrobenzo[b]thiophene-2-carboxamide], which IC50 is on record?
A: 0.0836 µM

Q: With `C=CC(=O)Nc1cc(Nc2cc(-c3cccc(NC(=O)c4ccc(N(C)C)cc4)c3C)cn(C)c2=O)ccc1C(=O)NC1CCOCC1` [Compound 51, 2-acrylamide-4-((5-(3-(4-(dimethylamino)benzoylamide)-2-methylphenyl)-1-methyl-2-oxo-1,2-dihydropyridin-3-yl)amino)-N-(tetrahydro-2H-pyran-4-yl)benzoylamide] as the compound, how does the IC50 read?
A: 0.089 µM

Q: With `C=CC(=O)Nc1cc(Nc2cc(-c3cccc(NC(=O)c4cccc(OC)c4)c3C)cn(C)c2=O)ccc1C(=O)N1CCOCC1` [Compound 59, N-(3-(5-((3-acrylamide-4-(morpholin-4-carbonyl)phenyl)amino)-1-methyl-6-oxo-1,6-dihydropyridin-3-yl)-2-methylphenyl)-3-methoxy Benzoylamide] as the compound, how does the IC50 read?
A: 0.816 µM

Q: `CCC(=O)Nc1cc(Nc2cc(-c3cccc(NC(=O)c4ccc(C(C)(C)C)cc4)c3C)cn(C)c2=O)ccc1C(=O)N1CCN(C(=O)OC(C)(C)C)CC1` [Compound 39, tertbutyl 4-(2-propanamide-4-((5-(3-(4-(tert-butyl)benzamide)-2-methylphenyl)-1-methyl-2-oxo-1,2-dihydropyridin-3-yl)amino)benzoyl)piperazin-1-carboxylate] was tested. Which IC50 did it give?
A: 0.503 µM

Q: With `C=CC(=O)Nc1cc(Nc2cc(-c3cccc(NC(=O)c4cc5ccccc5s4)c3C)cn(C)c2=O)ccc1C(=O)N1CCOCC1` [Compound 68, N-(3-(5-((3-acrylamide-4-(morpholin-4-carbonyl)phenyl)amino)-1-methyl-6-oxo-1,6-dihydropyridin-3-yl)-2-methylphenyl)benzo[b]thiophene-2-carboxamide] as the compound, how does the IC50 read?
A: 0.022 µM

Q: With `C=CC(=O)Nc1cc(Nc2cc(-c3cccc(NC(=O)c4cc5c(s4)CCCC5)c3C)cn(C)c2=O)ccc1N1CCOCC1` [Compound 78, N-(3-(5-((3-acrylamide-4-morpholinophenyl)amino)-1-methyl-6-oxo-1,6-dihydropyridin-3-yl)-2-methylphenyl)4,5,6,7-tetrahydrobenzo[b]thiophene-2-carboxamide] as the compound, how does the IC50 read?
A: 0.119 µM

Q: How did the IC50 turn out when `CCC(=O)Nc1cc(Nc2cc(-c3cccc(NC(=O)c4ccc(C(C)(C)C)cc4)c3C)cn(C)c2=O)ccc1C(=O)N(C)C` [Compound 30, 2-propanamide-4-((5-(3-(4-(tert-butyl)benzamide)-2-methylphenyl)-1-methyl-2-oxo-1,2-dihydropyridin-3-yl)amino)-N,N-dimethylbenzoylamide] was run?
A: 0.339 µM

Q: How did the IC50 turn out when `C=CC(=O)Nc1cc(Nc2cc(-c3cccc(NC(=O)c4ccc(N(C)C)cc4)c3C)cn(C)c2=O)ccc1C(=O)N1CCC(O)CC1` [Compound 56, N-(3-(5-((3-acrylamide-4-(4-hydroxypiperdin-1-carbonyl)phenyl)amino)-1-methyl-6-oxo-1,6-dihydropyridin-3-yl)-2-methylphenyl)-4-(dimethylamino)benzoylamide] was run?
A: 0.124 µM

Q: `C=CC(=O)Nc1cc(Nc2cc(-c3cccc(NC(=O)c4cc5c(s4)CCCC5)c3C)cn(C)c2=O)ccc1N(C)C` [Compound 77, N-(3-(5-((3-acrylamide-4-(dimethylamino)phenyl)amino)-1-methyl-6-oxo-1,6-dihydropyridin-3-yl)-2-methylphenyl)-4,5,6,7-tetrahydrobenzo[b]thiophene-2-carboxamide] was tested. Which IC50 did it give?
A: 0.101 µM

Q: How did the IC50 turn out when `C=CC(=O)Nc1cc(Nc2cc(-c3cccc(NC(=O)c4cc5ccccc5s4)c3C)cn(C)c2=O)ccc1N1CCC(N(C)C)CC1` [Compound 84, N-(3-(5-((3-acrylamide-4-(4-(dimethylamino)piperidin-1-yl)phenyl)amino)-1-methyl-6-oxo-1,6-dihydropyridin-3-yl)-2-methylphenyl)benzo[b]thiophene-2-carboxamide] was run?
A: 0.0078 µM

Q: With `C=CC(=O)Nc1cc(Nc2cc(-c3cccc(NC(=O)c4cccc(C(F)(F)F)c4)c3C)cn(C)c2=O)ccc1C(=O)N1CCOCC1` [Compound 57, N-(3-(5-((3-acrylamide-4-(morpholin-4-carbonyl)phenyl)amino)-1-methyl-6-oxo-1,6-dihydropyridin-3-yl)-2-methylphenyl)-3-(trifluoromethyl)benzoylamide] as the compound, how does the IC50 read?
A: > 10 µM

Q: For `CCC(=O)Nc1cc(Nc2cc(-c3cccc(NC(=O)c4ccc(C(C)(C)C)cc4)c3C)cn(C)c2=O)ccc1C(=O)N1CCCC1` [Compound 33, N-(3-(5-((3-propanamide-4-(pyrrolidin-1-carbonyl)phenyl)amino)-1-methyl-6-oxo-1,6-dihydropyridin-3-yl)-2-methylphenyl)-4-(tert-butyl)benzamide], which IC50 is on record?
A: 0.165 µM

— patent publication US10669238B2, “Irreversible bruton's tyrosine kinase inhibitor” (HEFEI INSTITUTES OF PHYSICAL SCIENCE, CHINESE ACADEMY OF …, priority 2016, dated 2020)
